Assay results reported in patent US20260325661A1, “ANTIBODY-CONJUGATED IMMUNO-ACTIVATING SMALL MOLECULE COMPOUND, AND USE” (SHENZHEN CONJUGENIX PHARMACEUTICAL TECHNOLOGY CO., LTD, priority 2023, published 2026).
pEC50: −log10 of the molar value. Where two headings read alike, the source gives them in different places.

Tested on: human peripheral blood mononuclear cells (PBMCs)
Assay: ELISA assay of immunocyte activator: induction of IFN-γ in human PBMCs
Format: cell-based
Description: The immune activity of each compound is represented by the function of inducing human peripheral blood mononuclear cells (PBMCs) to produce the immune cytokine IFN-γ by, and the EC50 values thereof are shown in Table 3.
• 1) Peripheral blood samples from healthy human volunteer were collected into heparin anticoagulant tubes to reach 5 mL of fresh blood, and PBS was added at a ratio of 1:1 to dilute the blood (2 mL+2 mL in conventional blood collection tubes). • 2) 5 mL of lymphocyte separation medium was put in a 15 mL sterile centrifuge tube for use. • 3) The diluted blood was aspirated and slowly added from 1 cm above the separation medium along the tube wall, so that the diluted blood overlaid the separation medium and formed a distinct interface therewith. • 4) The centrifuge tube was centrifuged at 2000 rpm at room temperature for 20 min. Now five layers formed in the centrifuge tube: the top layer was plasma layer, and the layer between the plasma layer and the lymphocyte separation medium was the lymphocyte layer as a white film. • 5) The mononuclear cell layer as a white film in the middle was aspirated carefully and mononuclear cells were aspirated as many as possible. The mononuclear cells were washed by more than 5 volumes of PBS twice, and each time, the mononuclear cells were centrifuged at 1500 rpm for 10 min. • 6) The supernatant was removed, then 1 mL of 1640 medium was added and mixed uniformly. A small amount of the mixture was taken for cell counting.
The prepared PBMCs were plated in a 96-well plate (Costar, 3894) (2×10^5 cells per well). Each compound in Table 3 was taken and added into the wells with plated cells at ten concentrations with uniform gradient distribution (0.0001-10 μM, diluted with […] medium containing […]).

[1] = Homo sapiens, PBMC, 24 h, 37 °C, Note c: sample pretreated with Cathepsin-B (10 μg) in PBS, room temperature, 3 h, read-out: EC50 IFN-γ ratio (inducing human PBMCs to produce IFN-γ)
[2] = Homo sapiens, PBMC, 24 h, 37 °C, no pretreatment marked, read-out: EC50 IFN-γ ratio (inducing human PBMCs to produce IFN-γ)
[3] = 24 h, 37 °C, Note a: sample pretreated with human liver microsomal enzyme, 2 h, read-out: EC50 IFN-γ ratio (inducing human PBMCs to produce IFN-γ)

CCCCOc1nc(N)c2c(n1)c(Cc1ccc3c(c1)CN(C(=O)/C=C/C(=O)c1ccc(OC)cc1)CC3)cn2C(=O)OCc1ccc(NC(=O)[C@H](CCCNC(N)=O)NC(=O)[C@@H](NC(=O)CCOCCOCCOCCOCCN2C(=O)C=CC2=O)C(C)C)cc1 [Compound K13]
pEC50 [1]: 6.96

CC[C@H](C)[C@@H]([C@@H](CC(=O)N1CCCC1[C@H](OC)[C@@H](C)C(=O)N[C@H](C)[C@@H](O)c1ccccc1)OC)N(C)C(=O)[C@@H](NC(=O)[C@H](C(C)C)N(C)C(=O)OCc1ccc(NC(=O)[C@H](CCCNC(N)=O)NC(=O)[C@@H](NC(=O)C(CCCCc2cn(CCOCCOCCOCCC(=O)O)nn2)NC(=O)CCC(=O)NCc2ccc(Cn3c(=O)[nH]c4c(N)nc(OCCOC)nc43)cc2)C(C)C)cc1)C(C)C (stereo partly drawn) [Compound K5]
pEC50 [2]: 6.89

CC[C@H](C)[C@@H]([C@@H](CC(=O)N1CCCC1[C@H](OC)[C@@H](C)C(=O)N[C@H](C)[C@@H](O)c1ccccc1)OC)N(C)C(=O)[C@@H](NC(=O)[C@H](C(C)C)N(C)C(=O)OCc1ccc(NC(=O)[C@H](CCCNC(N)=O)NC(=O)[C@@H](NC(=O)C(CCCCc2cn(CCOCCOCCOCCNC(=O)CCN3C(=O)C=CC3=O)nn2)NC(=O)CCC(=O)NCc2ccc(Cn3c(=O)[nH]c4c(N)nc(OCCOC)nc43)cc2)C(C)C)cc1)C(C)C (stereo partly drawn) [Compound K1]
pEC50 [2]: 7.00

C=C(CC(=O)OC)C(=O)NCc1ccc(Cn2c(=O)[nH]c3c(N)nc(OCCOC)nc32)cc1 [SZU-275]
pEC50 [2]: 9.00

COCCOc1nc(N)c2[nH]c(=O)n(Cc3ccc(CNC(=O)CCC(=O)NC(CCCCc4cnnn4CCOCCOCCOCCN=C=S)C(=O)NCCCC(=O)Nc4ccc(C#CC#N)cc4)cc3)c2n1 (stereo not drawn) [Compound K40]
pEC50 [2]: 9.00

CCC[C@H](C)Oc1nc(N)c2[nH]c(=O)n(CC3CCNCC3)c2n1 [KJ-1b, reference compound]
pEC50 [2]: 7.74

CCC[C@H](C)Oc1nc(N)c2[nH]c(=O)n(CC3CC[N+]([O-])(CCO)CC3)c2n1 (stereo partly drawn) [KJ-3b-O]
pEC50 [2]: 7.05

C=C(CN1CCC(n2cc(Cn3c(=O)n(COC(=O)OCCOCCOCCOCCNC(=O)CCC(=O)N4Cc5ccccc5C#Cc5ccccc54)c4c(N)nc(O[C@@H](C)CCC)nc43)nn2)CC1)C(=O)OCC [Compound K55]
pEC50 [3]: 7.68

C=C(CN1CCN(C(=O)n2c(=O)n(CCCc3cn(CCOCCOCCOCC(=O)OCC)nn3)c3nc(OCCCC)nc(N)c32)CC1)C(=O)NCCOCCOCCOCCOCCNC(=O)CCC(=O)N1Cc2ccccc2C#Cc2ccccc21 [Compound K61]
pEC50 (Homo sapiens, PBMC, 24 h, pH 6, 24 h, 37 °C, Note b: sample pretreated with equimolar glutathione, PBS pH 6, 37 °C, read-out: EC50 IFN-γ ratio (inducing human PBMCs to produce IFN-γ)): 8.70

COCCOc1nc(N)c2[nH]c(=O)n(Cc3ccc(CNC(=O)CCC(=O)NC(CCCCc4cn(CCOCCOCCOCCNC(=O)CCOCCOCCNC(=O)OCC5C6CCC#CCCC65)nn4)C(=O)N[C@H](C(=O)N[C@@H](CCCNC(N)=O)C(=O)Nc4ccc(COC(=O)NC[C@H](C)c5ccc(-c6c(O)cc(C)c7[nH]c(=O)c8sccc8c67)cc5)cc4)C(C)C)cc3)c2n1 (stereo partly drawn) [Compound K31]
pEC50 [2]: 7.54

C=C(CN1CCC(Cn2c(=O)[nH]c3c(N)nc(O[C@@H](C)CCC)nc32)CC1)C(=O)NCCOCCOCCOCCOCCNC(=O)CCC(=O)N1Cc2ccccc2C#Cc2ccccc21 [Compound K49]
pEC50 [2]: 7.96

CCCCOc1nc(N)c2[nH]c(=O)n(CCCc3cn(CCOCCOCCOCC(=O)OCC)nn3)c2n1 [GY1401]
pEC50 [2]: 8.70

C=CC(=O)N1CCN(c2ncnc3c(F)c(-c4c(F)cccc4OCCc4cn(CCCNc5nc(NCCOCCOCCOCCNC(=O)CCC(=O)NCc6ccc(Cn7c(=O)[nH]c8c(N)nc(OCCOC)nc87)cc6)nc(N6CCC(CNC(=O)OCc7ccc(NC(=O)[C@H](CCCNC(N)=O)NC(=O)[C@@H](NC(=O)CCOCCOCCOCCN=[N+]=[N-])C(C)C)cc7)CC6)n5)nn4)c(Cl)cc23)CC1 [Compound K21]
pEC50 [2]: 8.22

C=C(CN1CCC(Cn2c(=O)n(C(=O)NCCNC(=O)OCc3ccc(NC(=O)[C@H](CCCNC(N)=O)NC(=O)[C@@H](NC(=O)CCOCCOCCOCCOCCNC(=O)CCC(=O)N4Cc5ccccc5C#Cc5ccccc54)C(C)C)cc3)c3c(N)nc(O[C@@H](C)CCC)nc32)CC1)C(=O)OCC [Compound K51]
pEC50 [3]: 8.70

CCOC(=O)NC(=S)n1c(=O)n(Cc2ccc(CNC(=O)CCc3cn(CCOCCOCCOCCNC(=O)CCN4C(=O)C=CC4=O)nn3)cc2)c2nc(OCCOC)nc(N)c21 [Compound K15]
pEC50 (Homo sapiens, PBMC, 24 h, 37 °C, Note a: sample pretreated with human liver microsomal enzyme, 2 h, read-out: EC50 IFN-γ ratio (inducing human PBMCs to produce IFN-γ)): 7.92

CCC[C@H](C)Oc1nc(N)c2[nH]c(=O)n(Cc3cn(C4CCNCC4)nn3)c2n1 [GY228]
pEC50 [2]: 7.27

COCCOc1nc(N)c2[nH]c(=O)n(Cc3ccc(CNC(=O)CCc4cn(CCOCCOCCOCCNC(=O)CCN5C(=O)C=CC5=O)nn4)cc3)c2n1 [KJ-008]
pEC50 [2]: 8.15

CC[C@@]1(O)C(=O)OCc2c1cc1n(c2=O)Cc2c-1nc1cc(F)c(C)c3c1c2[C@@H](NC(=O)CO[Si](OCCOCCOCCNC(=O)C(CCCCc1cn(CCOCCOCCOCCNC(=O)CCN2C(=O)C=CC2=O)nn1)NC(=O)CCC(=O)NCc1ccc(Cn2c(=O)[nH]c4c(N)nc(OCCOC)nc42)cc1)(C(C)C)C(C)C)CC3 (stereo partly drawn) [Compound K17]
pEC50 (Homo sapiens, PBMC; 24 h, 37 °C; no pretreatment marked; read-out: EC50 IFN-γ ratio (inducing human PBMCs to produce IFN-γ)): 6.68

C#CCCCn1c(=O)[nH]c2c(N)nc(OCCCC)nc21 [GY121, reference compound]
pEC50 [2]: 7.30

C=C(CN1CCC(Cn2c(=O)[nH]c3c(N)nc(OCCCC)nc32)CC1)C(=O)O [KJ-099]
pEC50 [2]: 6.38

CCCCOc1nc(N)c2[nH]c(=O)n(CC3CCN(C(=O)/C=C/C(=O)c4ccc(OC)cc4)CC3)c2n1 [KJ-104]
pEC50 [2]: 8.05

C#Cc1c(F)ccc2cc(O)cc(-c3ncc4c(N5CC6CCC(C5)N6C(=O)OCc5ccc(NC(=O)[C@H](CCCNC(N)=O)NC(=O)[C@@H](NC(=O)C(CCCCc6cn(CCOCCOCCOCCNC(=O)CCN7C(=O)C=CC7=O)nn6)NC(=O)CCC(=O)NCc6ccc(Cn7c(=O)[nH]c8c(N)nc(OCCOC)nc87)cc6)C(C)C)cc5)nc(OC[C@@]56CCCN5C[C@H](F)C6)nc4c3F)c12 (stereo partly drawn) [Compound K32]
pEC50 [2]: 6.80

COCCOc1nc(N)c2[nH]c(=O)n(Cc3ccc(CNC(=O)CCC(=O)NC(CCCCNC(=O)OCc4ccc(NC(=O)[C@H](CCCNC(N)=O)NC(=O)[C@@H](NC(=O)CCCCCN5C(=O)C=CC5=O)C(C)C)cc4)C(=O)NCCOCCOCCOCCNC(=O)OC4CC/C=C/CCC4)cc3)c2n1 (stereo partly drawn) [Compound K30]
pEC50 [2]: 7.23

COCCOc1nc(N)c2[nH]c(=O)n(Cc3ccc(CNC(=O)CCC(=O)NC(CCCCc4cn(CCOCCOCCOCCNC(=O)CCN5C(=O)C=CC5=O)nn4)C(=O)NCCOCCOCCOCCNC(=O)OC4CC/C=C/CCC4)cc3)c2n1 (stereo not drawn) [Compound K26]
pEC50 [2]: 8.70

CCCCOc1nc(N)c2[nH]c(=O)n(Cc3cn(CCOCCOCCOCC(=O)N[C@H](CCCCNC(=O)OCc4ccc(NC(=O)[C@H](CCCNC(N)=O)NC(=O)[C@@H](NC(=O)CCCCCN5C(=O)C=CC5=O)C(C)C)cc4)C(=O)NCCOCCOCCOCCOCCNC(=O)CCC(=O)N4Cc5ccccc5C#Cc5ccccc54)nn3)c2n1 [Compound K7]
pEC50 [2]: 7.35

CCCCOc1nc(N)c2[nH]c(=O)n(Cc3ccc(NC(=S)Nc4sc5c(c4C(=O)OCC)CCCC5)cc3)c2n1 [KJ005]
pEC50 [2]: 6.43

C=CC(=O)Nc1cc(Nc2nccc(-c3cn(C)c4ccccc34)n2)c(OC)cc1N(C)CCN(C)CCOCCOCCOCCn1cc(Cn2c(=O)n(C(=O)NCCNC(=O)OCc3ccc(NC(=O)[C@H](CCCNC(N)=O)NC(=O)[C@@H](NC(=O)CCOCCOCCOCCOCCNC(=O)CCC(=O)N4Cc5ccccc5C#Cc5ccccc54)C(C)C)cc3)c3c(N)nc(OCCCC)nc32)nn1 [Compound K38]
pEC50 [1]: 7.05

C=C(CN1CCC(Cn2c(=O)[nH]c3c(N)nc(O[C@@H](C)CCC)nc32)CC1)C(=O)OCC [KJ-096]
pEC50 [2]: 8.52

CCCCOc1nc(N)c2[nH]cc(Cc3ccc4c(c3)CNCC4)c2n1 [PMQ-1, reference compound]
pEC50 [2]: 6.49

C#CCn1c(=O)[nH]c2c(N)nc(OCCCC)nc21 [GY100, reference compound]
pEC50 [2]: 6.96
